In article PMC2922490 (Bioorganic & medicinal chemistry letters, 2010):

What was measured:
[1] = type: in vitro ADME; conditions: rat microsomes, incubation period of 60 min
[2] = type: in vitro ADME; conditions: rat protein binding
[3] = type: in vitro ADME; conditions: human protein binding
[4] = molecular target: hmGlu4 (Homo sapiens, UniProt Q14833)
[5] = type: in vitro ADME; conditions: human microsomes, incubation period of 60 min

Sequence of hmGlu4 (Q14833 33-912): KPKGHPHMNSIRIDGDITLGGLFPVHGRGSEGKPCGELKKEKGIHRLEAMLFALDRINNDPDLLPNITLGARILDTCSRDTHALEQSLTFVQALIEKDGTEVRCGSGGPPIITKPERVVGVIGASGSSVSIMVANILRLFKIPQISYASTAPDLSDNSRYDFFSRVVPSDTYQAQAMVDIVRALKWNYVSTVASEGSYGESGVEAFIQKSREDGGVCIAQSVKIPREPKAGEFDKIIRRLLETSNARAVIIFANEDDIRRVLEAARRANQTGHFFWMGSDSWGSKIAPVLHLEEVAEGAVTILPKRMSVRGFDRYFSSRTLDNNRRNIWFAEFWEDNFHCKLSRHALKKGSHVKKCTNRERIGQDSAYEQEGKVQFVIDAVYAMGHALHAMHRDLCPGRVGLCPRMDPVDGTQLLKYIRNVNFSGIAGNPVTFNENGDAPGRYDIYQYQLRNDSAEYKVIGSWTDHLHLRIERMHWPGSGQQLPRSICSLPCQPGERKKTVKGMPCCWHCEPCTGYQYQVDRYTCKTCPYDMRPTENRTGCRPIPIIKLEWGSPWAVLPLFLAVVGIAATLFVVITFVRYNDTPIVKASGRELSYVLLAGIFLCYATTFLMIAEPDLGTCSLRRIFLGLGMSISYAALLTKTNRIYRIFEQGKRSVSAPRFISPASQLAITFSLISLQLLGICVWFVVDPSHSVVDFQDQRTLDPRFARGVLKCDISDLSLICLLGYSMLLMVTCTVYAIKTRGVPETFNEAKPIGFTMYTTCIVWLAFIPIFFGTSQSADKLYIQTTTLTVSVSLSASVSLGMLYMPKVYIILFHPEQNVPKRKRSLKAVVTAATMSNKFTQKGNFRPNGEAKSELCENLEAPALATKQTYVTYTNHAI

| Structure (SMILES) | RLM (% remaining) [1] [% remaining] | PPB (r) (% free) [2] [% free] | PPB (h) (% free) [3] [% free] | increase in potency relative to 4 ([4]; 2-furyl amide of 4 changed to 2-pyridyl amide) [fold] | receptor activation in the absence of glutamate ([4]; mGlu4/Gqi5 CHO cells, absence of an EC20 concentration of glutamate) | HLM (% remaining) [5] [% remaining] | loss of potency ([4]; relative to the parent compound (13 vs 11; N-Me vs NH sulfonamides)) [fold] |
| --- | --- | --- | --- | --- | --- | --- | --- |
| Cc1cc(C)c(NS(=O)(=O)c2ccc(NC(=O)c3ccco3)cc2)c(C)c1 [Compound 4] | 93.3 | 8.2 | 2.2 | – | – | – | – |
| Cc1cc(C)c(NS(=O)(=O)c2ccc(NC(=O)c3ccccn3)cc2)c(C)c1 [Compound 5] | 25.8 | 0.3 | 0.1 | 30 | does not elicit receptor activation | – | – |
| O=C(Nc1ccc(S(=O)(=O)Nc2ccccc2Cl)cc1)c1ccccn1 [Compound 8b] | 0.02 | 0.3 | 0.1 | – | – | 0.02 | – |
| O=C(Nc1ccc(S(=O)(=O)Nc2ccccc2Cl)cc1)c1nccs1 [Compound 9d] | 1.2 | 0.1 | 0.1 | – | – | 0.84 | – |
| CN(c1ccccc1Cl)S(=O)(=O)c1ccc(NC(=O)c2ccncn2)cc1 [Compound 9f] | 3.3 | 2.7 | 1.7 | – | – | 2.5 | – |
| CN(c1ccccc1Cl)S(=O)(=O)c1ccc(NC(=O)c2nccs2)cc1 [Compound 9g] | 0.08 | 37 | 0.5 | – | – | 0.1 | – |
| COc1ccccc1NS(=O)(=O)c1ccc(NC(=O)c2ccccn2)cc1OC [Compound 10] | 0.05 | 12.7 | 0.3 | – | – | 1.3 | – |
| O=C(Nc1ccc(S(=O)(=O)Nc2ccccc2Cl)c(Cl)c1)c1ccccn1 [Compound 11] | 0.02 | – | – | – | – | 0.63 | – |
| O=C(Nc1ccc(Cl)c(S(=O)(=O)Nc2ccccc2Cl)c1)c1ccccn1 [Compound 13] | 0.05 | – | – | – | – | 11.9 | 36 |
